ChEMBL document CHEMBL1944583, “Synthesis and evaluation of hexahydropyrrolo[3,4-d]isoxazole-4,6-diones as anti-stress agents” (Eur J Med Chem, 2012)
The source made the active and inactive calls. The rule behind the calls is not given here.

What was measured:
Mus musculus [1] = experiment: Antistress activity in Swiss albino mouse assessed as reversal of immobilization stress-induced decrease in frequency of rearing at 2 mg/kg, ip administered 60 mins before stress induction measured after 10 mins by open field test; assay type: functional, organism-based; design: dose 2 mg/kg
Mus musculus [2] = experiment: Antistress activity in Swiss albino mouse assessed as […] immobilization stress-induced decrease in non-social behavior at 2 mg/kg, ip administered 60 mins before stress induction measured after 10 mins by open field test; assay type: functional, organism-based; design: dose 2 mg/kg
Mus musculus [3] = experiment: Antistress activity in Swiss albino mouse assessed as reversal of immobilization stress-induced decrease in number of line crossing at 2 mg/kg, ip administered 60 mins before stress induction measured after 10 mins by open field test; assay type: functional, organism-based; design: dose 2 mg/kg
Mus musculus [4] = experiment: Antistress activity in Swiss albino mouse assessed as reversal of immobilization stress-induced decrease in frequency of head dip at 2 mg/kg, ip administered 60 mins before stress induction measured after 10 mins by hole board test; assay type: functional, organism-based; design: dose 2 mg/kg
Mus musculus [5] = experiment: Antistress activity in Swiss albino mouse assessed as reversal of immobilization stress-induced decrease in locomotor activity at 2 mg/kg, ip administered 60 mins before stress induction measured every 5 mins by actophotometer test; assay type: functional, organism-based; design: dose 2 mg/kg
Mus musculus [6] = experiment: Antistress activity in Swiss albino mouse assessed as reversal of immobilization stress-induced decrease in rearing at 2 mg/kg, ip administered 60 mins before stress induction measured after 10 mins by hole board test; assay type: functional, organism-based; design: dose 2 mg/kg
[7] = Half life in Swiss albino mouse; assay type: ADME, organism-based; settings: in vivo
Mus musculus [8] = experiment: Antistress activity in Swiss albino mouse assessed as reversal of immobilization stress-induced decrease in frequency of head dip at 5 mg/kg, ip administered 60 mins before stress induction measured after 10 mins by hole board test; assay type: functional, organism-based; design: dose 5 mg/kg
Mus musculus [9] = experiment: Antistress activity in Swiss albino mouse assessed as reversal of immobilization stress-induced decrease in rearing at 10 mg/kg, ip administered 60 mins before stress induction measured after 10 mins by hole board test; assay type: functional, organism-based; design: dose 10 mg/kg
Mus musculus [10] = experiment: Antistress activity in Swiss albino mouse assessed as reversal of immobilization stress-induced decrease in locomotor activity at 10 mg/kg, ip administered 60 mins before stress induction measured every 5 mins by actophotometer test; assay type: functional, organism-based; design: dose 10 mg/kg
Mus musculus [11] = experiment: Antistress activity in Swiss albino mouse assessed as reversal of immobilization stress-induced decrease in non-social behavior at 10 mg/kg, ip administered 60 mins before stress induction measured after 10 mins by open field test; assay type: functional, organism-based; design: dose 10 mg/kg
Mus musculus [12] = experiment: Antistress activity in Swiss albino mouse assessed as reversal of immobilization stress-induced decrease in non-social behavior at 5 mg/kg, ip administered 60 mins before stress induction measured after 10 mins by open field test; assay type: functional, organism-based; design: dose 5 mg/kg
Mus musculus [13] = experiment: Toxicity in Swiss albino mouse assessed as increase in frequency of rearing at 10 mg/kg, ip; assay type: organism-based; design: dose 10 mg/kg, route intraperitoneal; settings: in vivo
Mus musculus [14] = experiment: Antistress activity in Swiss albino mouse assessed as reversal of immobilization stress-induced decrease in frequency of rearing at 5 mg/kg, ip administered 60 mins before stress induction measured after 10 mins by open field test; assay type: functional, organism-based; design: dose 5 mg/kg
Mus musculus [15] = experiment: Antistress activity in Swiss albino mouse assessed as reversal of immobilization stress-induced decrease in locomotor activity at 5 mg/kg, ip administered 60 mins before stress induction measured every 5 mins by actophotometer test; assay type: functional, organism-based; design: dose 5 mg/kg
Mus musculus [16] = experiment: Antistress activity in Swiss albino mouse assessed as reversal of immobilization stress-induced decrease in frequency of rearing at 10 mg/kg, ip administered 60 mins before stress induction measured after 10 mins by open field test; assay type: functional, organism-based; design: dose 10 mg/kg
Mus musculus [17] = experiment: Antistress activity in Swiss albino mouse assessed as reversal of immobilization stress-induced decrease in number of line crossing at 5 mg/kg, ip administered 60 mins before stress induction measured after 10 mins by open field test; assay type: functional, organism-based; design: dose 5 mg/kg
Mus musculus [18] = experiment: Antistress activity in Swiss albino mouse assessed as reversal of immobilization stress-induced decrease in rearing at 5 mg/kg, ip administered 60 mins before stress induction measured after 10 mins by hole board test; assay type: functional, organism-based; design: dose 5 mg/kg
Mus musculus [19] = experiment: Antistress activity in Swiss albino mouse assessed as reversal of immobilization stress-induced decrease in number of line crossing at 10 mg/kg, ip administered 60 mins before stress induction measured after 10 mins by open field test; assay type: functional, organism-based; design: dose 10 mg/kg
Mus musculus [20] = experiment: Toxicity in Swiss albino mouse assessed as increase in frequency of head dips at 10 mg/kg, ip; assay type: organism-based; design: dose 10 mg/kg, route intraperitoneal; settings: in vivo
Mus musculus [21] = experiment: Antistress activity in Swiss albino mouse assessed as reversal of immobilization stress-induced decrease in frequency of head dip at 10 mg/kg, ip administered 60 mins before stress induction measured after 10 mins by hole board test; assay type: functional, organism-based; design: dose 10 mg/kg

Compound	Activity (Mus musculus [1])	Activity (Mus musculus [2])	Activity (Mus musculus [3])	Activity (Mus musculus [4])	Activity (Mus musculus [5])	Activity (Mus musculus [6])	Activity (Mus musculus [10])	Activity (Mus musculus [11])	Activity (Mus musculus [12])	Activity (Mus musculus [13])	Activity (Mus musculus [14])	Activity (Mus musculus [15])	Activity (Mus musculus [16])	Activity (Mus musculus [17])	Activity (Mus musculus [19])	Activity (Mus musculus [20])	also measured
CN1C(=O)CN=C(c2ccccc2)c2cc(Cl)ccc21	Active	Active	Active	Active	Active	Active	–	–	–	–	–	–	–	–	–	–	–
O=C1[C@H]2[C@@H](c3ccccc3)N(c3ccccc3)O[C@H]2C(=O)N1c1cccc2ccccc12 (relative stereo)	–	–	–	inactive	–	inactive	Active	Active	Active	Non-toxic	Active	Active	Active	Active	Active	Non-toxic	half-life [7]: 3 h; Activity (Mus musculus [8]): Active; Activity (Mus musculus [9]): Active; Activity (Mus musculus [18]): Active; Activity (Mus musculus [21]): Active
O=C1[C@@H]2[C@@H](ON(c3ccccc3)[C@H]2c2ccccc2)C(=O)N1c1cccc2ccccc12 (relative stereo)	inactive	inactive	inactive	–	inactive	–	Active	Active	inactive	Non-toxic	inactive	inactive	Active	inactive	Active	Non-toxic	–
